Laboratory results from the supplement of paper PMC10307832.

Assays:
Experiment in all cases: relative viability (nuclei count vs DMSO), 5 days (fraction); higher = more cells survive
COR-L23 = test system: COR-L23
Procedure, shortened: (§1)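 Relative viability was taken as the ratio of nuclei in treated wells to nuclei in vehicle wells. Lung cancer cell lines in 1536-well plates received compounds by pin tool one day after seeding, either one drug alone or a fixed anchor-drug dose plus five library-drug doses (not always all listed) in √10 steps. Nuclei were counted on 4× images after 5 days of treatment, and values are medians of duplicate plates.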

ChaGo-K-1 = test system: ChaGo-K-1
Procedure, shortened: as §1

EMC-BAC-2 = test system: EMC-BAC-2
Procedure, shortened: as §1

EPLC-272H = test system: EPLC-272H
Procedure, shortened: as §1

H3255 = test system: H3255
Procedure, shortened: as §1

HCC-827 = test system: HCC-827
Procedure, shortened: as §1

LCLC-103H = test system: LCLC-103H
Procedure, shortened: as §1

LU99A = test system: LU99A
Procedure, shortened: as §1

NCI-H1395 = test system: NCI-H1395
Procedure, shortened: as §1

NCI-H1563 = test system: NCI-H1563
Procedure, shortened: as §1

NCI-H1651 = test system: NCI-H1651
Procedure, shortened: as §1

NCI-H1793 = test system: NCI-H1793
Procedure, shortened: as §1

NCI-H1944 = test system: NCI-H1944
Procedure, shortened: as §1

NCI-H2023 = test system: NCI-H2023
Procedure, shortened: as §1

NCI-H2085 = test system: NCI-H2085
Procedure, shortened: as §1

NCI-H2087 = test system: NCI-H2087
Procedure, shortened: as §1

NCI-H2405 = test system: NCI-H2405
Procedure, shortened: as §1

NCI-H520 = test system: NCI-H520
Procedure, shortened: as §1

NCI-H650 = test system: NCI-H650
Procedure, shortened: as §1

NCI-H838 = test system: NCI-H838
Procedure, shortened: as §1

SK-MES-1 = test system: SK-MES-1
Procedure, shortened: as §1

Structure (SMILES): COc1cc2nccc(Oc3ccc(NC(=O)Nc4cc(C)on4)c(Cl)c3)c2cc1OC [Tivozanib] + COc1cc2c(Oc3ccc(NC(=O)C4(C(=O)Nc5ccc(F)cc5)CC4)cc3F)ccnc2cc1OCCCN1CCOCC1 [Foretinib] (partner 0.25 µM)
- relative viability (COR-L23; first compound 0.005 µM): 0.929
- relative viability (COR-L23; first compound 0.01581 µM): 0.943
- relative viability (COR-L23; first compound 0.05 µM): 1.07
- relative viability (COR-L23; first compound 0.1581 µM): 0.976
- relative viability (COR-L23; first compound 0.5 µM): 0.787
- relative viability (ChaGo-K-1; first compound 0.005 µM): 0.841
- relative viability (ChaGo-K-1; first compound 0.01581 µM): 0.914
- relative viability (ChaGo-K-1; first compound 0.05 µM): 0.869
- relative viability (ChaGo-K-1; first compound 0.1581 µM): 0.889
- relative viability (ChaGo-K-1; first compound 0.5 µM): 0.86
- relative viability (EMC-BAC-2; first compound 0.005 µM): 1.03
- relative viability (EMC-BAC-2; first compound 0.01581 µM): 0.952
- relative viability (EMC-BAC-2; first compound 0.05 µM): 1.03
- relative viability (EMC-BAC-2; first compound 0.1581 µM): 0.952
- relative viability (EMC-BAC-2; first compound 0.5 µM): 1.07
- relative viability (EPLC-272H; first compound 0.005 µM): 0.61
- relative viability (EPLC-272H; first compound 0.01581 µM): 0.76
- relative viability (EPLC-272H; first compound 0.05 µM): 0.724
- relative viability (EPLC-272H; first compound 0.1581 µM): 0.694
- relative viability (EPLC-272H; first compound 0.5 µM): 0.655
- relative viability (H3255; first compound 0.005 µM): 0.831
- relative viability (H3255; first compound 0.01581 µM): 0.839
- relative viability (H3255; first compound 0.05 µM): 0.907
- relative viability (H3255; first compound 0.1581 µM): 0.66
- relative viability (H3255; first compound 0.5 µM): 0.735
- relative viability (HCC-827; first compound 0.005 µM): 0.994
- relative viability (HCC-827; first compound 0.01581 µM): 1.09
- relative viability (HCC-827; first compound 0.05 µM): 1.02
- relative viability (HCC-827; first compound 0.1581 µM): 1.09
- relative viability (HCC-827; first compound 0.5 µM): 1.01
- relative viability (LCLC-103H; first compound 0.005 µM): 0.905
- relative viability (LCLC-103H; first compound 0.01581 µM): 0.809
- relative viability (LCLC-103H; first compound 0.05 µM): 0.686
- relative viability (LCLC-103H; first compound 0.1581 µM): 0.849
- relative viability (LCLC-103H; first compound 0.5 µM): 0.881
- relative viability (LU99A; first compound 0.005 µM): 0.663
- relative viability (LU99A; first compound 0.01581 µM): 0.747
- relative viability (LU99A; first compound 0.05 µM): 0.836
- relative viability (LU99A; first compound 0.1581 µM): 0.653
- relative viability (LU99A; first compound 0.5 µM): 0.812
- relative viability (NCI-H1395; first compound 0.005 µM): 1.04
- relative viability (NCI-H1395; first compound 0.01581 µM): 1.01
- relative viability (NCI-H1395; first compound 0.05 µM): 1.11
- relative viability (NCI-H1395; first compound 0.1581 µM): 0.897
- relative viability (NCI-H1395; first compound 0.5 µM): 1.03
- relative viability (NCI-H1563; first compound 0.005 µM): 0.853
- relative viability (NCI-H1563; first compound 0.01581 µM): 1.01
- relative viability (NCI-H1563; first compound 0.05 µM): 0.888
- relative viability (NCI-H1563; first compound 0.1581 µM): 0.847
- relative viability (NCI-H1563; first compound 0.5 µM): 0.867
- relative viability (NCI-H1651; first compound 0.005 µM): 0.784
- relative viability (NCI-H1651; first compound 0.01581 µM): 0.78
- relative viability (NCI-H1651; first compound 0.05 µM): 0.842
- relative viability (NCI-H1651; first compound 0.1581 µM): 0.645
- relative viability (NCI-H1651; first compound 0.5 µM): 0.831
- relative viability (NCI-H1793; first compound 0.005 µM): 0.559
- relative viability (NCI-H1793; first compound 0.01581 µM): 0.7
- relative viability (NCI-H1793; first compound 0.05 µM): 0.685
- relative viability (NCI-H1793; first compound 0.1581 µM): 0.479
- relative viability (NCI-H1793; first compound 0.5 µM): 0.776
- relative viability (NCI-H1944; first compound 0.005 µM): 0.918
- relative viability (NCI-H1944; first compound 0.01581 µM): 0.854
- relative viability (NCI-H1944; first compound 0.05 µM): 0.926
- relative viability (NCI-H1944; first compound 0.1581 µM): 0.924
- relative viability (NCI-H1944; first compound 0.5 µM): 0.931
- relative viability (NCI-H2023; first compound 0.005 µM): 0.856
- relative viability (NCI-H2023; first compound 0.01581 µM): 0.703
- relative viability (NCI-H2023; first compound 0.05 µM): 0.989
- relative viability (NCI-H2023; first compound 0.1581 µM): 0.825
- relative viability (NCI-H2023; first compound 0.5 µM): 0.697
- relative viability (NCI-H2085; first compound 0.005 µM): 0.883
- relative viability (NCI-H2085; first compound 0.01581 µM): 0.884
- relative viability (NCI-H2085; first compound 0.05 µM): 0.831
- relative viability (NCI-H2085; first compound 0.1581 µM): 1.02
- relative viability (NCI-H2085; first compound 0.5 µM): 1.01
- relative viability (NCI-H2087; first compound 0.005 µM): 1.04
- relative viability (NCI-H2087; first compound 0.01581 µM): 1.12
- relative viability (NCI-H2087; first compound 0.05 µM): 1.11
- relative viability (NCI-H2087; first compound 0.1581 µM): 0.957
- relative viability (NCI-H2087; first compound 0.5 µM): 0.998
- relative viability (NCI-H2405; first compound 0.005 µM): 1.03
- relative viability (NCI-H2405; first compound 0.01581 µM): 1.04
- relative viability (NCI-H2405; first compound 0.05 µM): 1.08
- relative viability (NCI-H2405; first compound 0.1581 µM): 1.07
- relative viability (NCI-H2405; first compound 0.5 µM): 0.966
- relative viability (NCI-H520; first compound 0.005 µM): 0.595
- relative viability (NCI-H520; first compound 0.01581 µM): 0.702
- relative viability (NCI-H520; first compound 0.05 µM): 0.74
- relative viability (NCI-H520; first compound 0.1581 µM): 0.644
- relative viability (NCI-H520; first compound 0.5 µM): 0.712
- relative viability (NCI-H650; first compound 0.005 µM): 1
- relative viability (NCI-H650; first compound 0.01581 µM): 1.02
- relative viability (NCI-H650; first compound 0.05 µM): 0.994
- relative viability (NCI-H650; first compound 0.1581 µM): 1.02
- relative viability (NCI-H650; first compound 0.5 µM): 0.928
- relative viability (NCI-H838; first compound 0.005 µM): 1.06
- relative viability (NCI-H838; first compound 0.01581 µM): 0.952
- relative viability (NCI-H838; first compound 0.05 µM): 1.05
- relative viability (NCI-H838; first compound 0.5 µM): 1.03
- relative viability (SK-MES-1; first compound 0.005 µM): 0.862
- relative viability (SK-MES-1; first compound 0.01581 µM): 0.974
- relative viability (SK-MES-1; first compound 0.05 µM): 1.01
- relative viability (SK-MES-1; first compound 0.1581 µM): 0.981
- relative viability (SK-MES-1; first compound 0.5 µM): 0.924
